In patent US20210327553A1, “PREDICTION OF ADVERSE DRUG REACTION BASED ON MACHINE-LEARNED MODELS USING PROTEIN FUNCTION SCORES AND CLINICAL FACTORS” (Cipherome, Inc., priority 2020, published 2021):

What was measured:
COVID-19 = details: limited in-vitro and anecdotal data; cited from earlier work
[1] = prolonged use in patients with liver or kidney problems or immunosuppressed; cited from earlier work
[2] = Retrospective UK Biobank analysis of warfarin ADR records within first 90 days of administration; type: in vivo; details: n=612, ADR record (ICD9/10) within first 90 days of warfarin administration
Description: A retrospective analysis was conducted using genomic and phenotypic data from the UK Biobank (FIG. 2). […] Most common warfarin ADRs listed in the health registry data included non-traumatic, hemorrhage, gastrointestinal bleeding, and “ADRs due to anticoagulant use”.

Compound | in-vitro activity against COVID-19 (COVID-19) | cardiotoxicity [1] | ADR prevalence [2]
CCN(CC)CCCC(C)Nc1ccnc2cc(Cl)ccc12 (centres unmarked) [chloroquine] | have in-vitro activity against COVID-19 | cadiotoxicity (prolonged QT syndrome of irregular heartbeats) | 
CCN(CCO)CCCC(C)Nc1ccnc2cc(Cl)ccc12 (centres unmarked) [hydroxychloroquine] | have in-vitro activity against COVID-19 | cadiotoxicity (prolonged QT syndrome of irregular heartbeats) | 
CC(=O)CC(c1ccccc1)c1c(O)c2ccccc2oc1=O (centres unmarked) [warfarin] |  |  | 4.41%
